Experimental data from ChEMBL document CHEMBL1828557, “Biophysical and physicochemical methods differentiate highly ligand-efficient human D-amino acid oxidase inhibitors” (Eur J Med Chem, 2011).
Values after ≈ are worked out from the molar mass of the structure shown.

Key:
[1] = Plasma clearance in Wistar rat plasma at 1 mg/kg, iv; assay type: ADME, organism-based; design: dose 1 mg/kg, route intravenous
D-amino-acid oxidase [2] = molecular target: T1, D-amino-acid oxidase (Homo sapiens, UniProt P14920); assay: Binding affinity to human recombinant DAAO by steady state study scintillation proximity assay
Target sequence in this assay (P14920 whole entry): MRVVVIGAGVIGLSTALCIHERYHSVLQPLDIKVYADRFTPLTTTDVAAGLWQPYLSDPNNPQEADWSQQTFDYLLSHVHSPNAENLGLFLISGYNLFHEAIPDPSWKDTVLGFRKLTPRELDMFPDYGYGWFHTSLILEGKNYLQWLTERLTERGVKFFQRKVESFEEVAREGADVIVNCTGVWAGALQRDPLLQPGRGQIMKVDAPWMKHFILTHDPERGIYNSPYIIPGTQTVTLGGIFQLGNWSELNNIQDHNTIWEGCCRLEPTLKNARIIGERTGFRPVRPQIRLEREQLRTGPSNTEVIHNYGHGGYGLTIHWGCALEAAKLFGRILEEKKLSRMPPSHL

D-amino-acid oxidase [3] = molecular target: T1, D-amino-acid oxidase; assay: Binding affinity to human recombinant DAAO by kinetic study scintillation proximity assay
Target sequence in this assay (P14920 whole entry): as above

[4] = Ratio of drug level (0 to last) in brain to plasma in Swiss mouse at 10 mg/kg, po; assay type: ADME, organism-based; design: dose 10 mg/kg, route oral; conditions: brain and plasma, read-out: BPR
[5] = Tmax in Wistar rat brain at 10 mg/kg, po; assay type: ADME, organism-based; design: dose 10 mg/kg, route oral
Brain [6] = assay: AUC (0 to last) in Wistar rat brain at 10 mg/kg, po; assay type: ADME, organism-based; design: dose 10 mg/kg, route oral, time 0 - last; conditions: in vivo
D-amino-acid oxidase [7] = molecular target: T1, D-amino-acid oxidase; assay: Inhibition of human DAAO
Target sequence in this assay (P14920 whole entry): as above

[8] = Oral bioavailability (0 to last) in Wistar rat plasma at 10 mg/kg; assay type: ADME, organism-based
[9] = Apparent permeability across apical to basolateral side in human Caco2 cells by LC-MS/MS analysis; assay type: ADME, cell-based; conditions: Caco-2
[10] = Volume of distribution in Swiss mouse plasma at 1 mg/kg, iv; assay type: ADME, organism-based; design: dose 1 mg/kg, route intravenous
[11] = Dissociation constant, pKa of the compound by dip probe absorption spectroscopy technique; assay type: physicochemical
[12] = Apparent permeability from apical to basolateral side of MDCK cells expressing MDR1 by LC-MS/MS analysis; assay type: ADME, cell-based, Canis lupus familiaris; conditions: dog
[13] = Cmax in Wistar rat brain at 10 mg/kg, po; assay type: ADME, organism-based; design: dose 10 mg/kg, route oral
[14] = Octanol-water partition coefficient, log P of the neutral compound by pH-metric method; assay type: physicochemical
D-amino-acid oxidase [15] = molecular target: T1, D-amino-acid oxidase; assay: Binding affinity to human recombinant DAAO by isothermal titration calorimeter analysis
Target sequence in this assay (P14920 whole entry): as above

[16] = Terminal half life in Swiss mouse brain at 10 mg/kg, po; assay type: ADME, organism-based; design: dose 10 mg/kg, route oral; conditions: read-out: beta t1/2 (converted)
[17] = Cmax in Swiss mouse brain at 10 mg/kg, po; assay type: ADME, organism-based; design: dose 10 mg/kg, route oral
[18] = Kinetic solubility of the compound in 0.01 M phosphate buffered saline at pH 7.4 assessed as minimum solubility after 2 hrs; assay type: physicochemical; conditions: read-out: Kinetic_solubility
Brain [19] = assay: AUC (0 to last) in Swiss mouse brain at 10 mg/kg, po; assay type: ADME, organism-based; design: time 0 - last, dose 10 mg/kg, route oral; conditions: in vivo
[20] = Volume of distribution in Wistar rat plasma at 1 mg/kg, iv; assay type: ADME, organism-based; design: dose 1 mg/kg, route intravenous
[21] = Oral bioavailability (0 to last) in Swiss mouse plasma at 10 mg/kg; assay type: ADME, organism-based
[22] = Terminal half life in Wistar rat brain at 10 mg/kg, po; assay type: ADME, organism-based; design: dose 10 mg/kg, route oral; conditions: read-out: beta t1/2 (converted)
[23] = Plasma clearance in Swiss mouse plasma at 1 mg/kg, iv; assay type: ADME, organism-based; design: dose 1 mg/kg, route intravenous
[24] = Tmax in Swiss mouse brain at 10 mg/kg, po; assay type: ADME, organism-based; design: dose 10 mg/kg, route oral
[25] = Ratio of drug level (0 to last) in brain to plasma in Wistar rat at 10 mg/kg, po; assay type: ADME, organism-based; design: dose 10 mg/kg, route oral; conditions: brain and plasma, read-out: BPR
[26] = Kinetic solubility of the compound in 0.01 M phosphate buffered saline at pH 7.4 assessed as maximum solubility after 2 hrs; assay type: physicochemical; conditions: read-out: Kinetic_solubility
D-aspartate oxidase = molecular target: T2, D-aspartate oxidase (Bos taurus, UniProt P31228); assay: Inhibition of bovine recombinant DASPO expressed in Escherichia coli preincubated for 15 mins by fluorescence assay
T2 sequence (P31228 whole entry): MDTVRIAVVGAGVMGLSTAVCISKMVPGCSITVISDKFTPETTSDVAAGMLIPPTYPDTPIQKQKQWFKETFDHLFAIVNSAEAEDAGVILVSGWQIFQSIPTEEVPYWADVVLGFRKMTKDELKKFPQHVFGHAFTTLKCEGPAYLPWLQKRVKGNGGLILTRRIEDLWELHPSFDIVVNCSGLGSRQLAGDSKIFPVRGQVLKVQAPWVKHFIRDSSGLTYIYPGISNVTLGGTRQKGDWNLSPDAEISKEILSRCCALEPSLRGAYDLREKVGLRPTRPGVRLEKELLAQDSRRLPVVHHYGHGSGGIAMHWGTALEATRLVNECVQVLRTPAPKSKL

D-amino-acid oxidase [27] = molecular target: T1, D-amino-acid oxidase
Target sequence in this assay (P14920 whole entry, looked up): as the sequence (P14920 whole entry) above

D-amino-acid oxidase [28] = molecular target: T1, D-amino-acid oxidase; assay: Inhibition of human recombinant DAAO expressed in Escherichia coli assessed as H2O2 production from D-serine degradation after 30 mins by fluorescence assay
Target sequence in this assay (P14920 whole entry): as the sequence (P14920 whole entry) above

[29] = Thermodynamic solubility of the compound in phosphate buffer at pH 7.4 after 24 hrs by HPLC analysis; assay type: physicochemical; conditions: read-out: Therm_solubility
[30] = Intrinsic clearance in human liver microsomes; assay type: ADME, Microsome
[31] = molecular target: Voltage-gated inwardly rectifying potassium channel KCNH2 (Homo sapiens, UniProt Q12809); assay: Inhibition of human ERG expressed in HEK293 cells by whole cell voltage patch clamp technique; assay type: cell-based
Brain [32] = assay: AUC (0 to last) in Swiss mouse brain at 30 mg/kg, po; assay type: ADME, organism-based; design: time 0 - last, dose 30 mg/kg, route oral; conditions: in vivo
[33] = Volume of distribution in Swiss mouse plasma at 10 mg/kg, iv; assay type: ADME, organism-based; design: dose 10 mg/kg, route intravenous
Brain [34] = assay: AUC (0 to last) in Wistar rat brain at 30 mg/kg, po; assay type: ADME, organism-based; design: time 0 - last, dose 30 mg/kg, route oral; conditions: in vivo
[35] = Cmax in Wistar rat brain at 30 mg/kg, po; assay type: ADME, organism-based; design: dose 30 mg/kg, route oral
[36] = Ratio of drug level (0 to last) in brain to plasma in Swiss mouse at 30 mg/kg, po; assay type: ADME, organism-based; design: dose 30 mg/kg, route oral; conditions: brain and plasma, read-out: BPR
[37] = Oral bioavailability (0 to last) in Swiss mouse plasma at 30 mg/kg; assay type: ADME, organism-based
[38] = Oral bioavailability (0 to last) in Wistar rat plasma at 30 mg/kg; assay type: ADME, organism-based
[39] = Cmax in Swiss mouse brain at 30 mg/kg, po; assay type: ADME, organism-based; design: dose 30 mg/kg, route oral
[40] = Plasma clearance in Wistar rat plasma at 10 mg/kg, iv; assay type: ADME, organism-based; design: dose 10 mg/kg, route intravenous
[41] = Tmax in Wistar rat brain at 30 mg/kg, po; assay type: ADME, organism-based; design: dose 30 mg/kg, route oral
[42] = Tmax in Swiss mouse brain at 30 mg/kg, po; assay type: ADME, organism-based; design: dose 30 mg/kg, route oral
[43] = Ratio of drug level (0 to last) in brain to plasma in Wistar rat at 30 mg/kg, po; assay type: ADME, organism-based; design: dose 30 mg/kg, route oral; conditions: brain and plasma, read-out: BPR
[44] = Plasma clearance in Swiss mouse plasma at 10 mg/kg, iv; assay type: ADME, organism-based; design: dose 10 mg/kg, route intravenous
[45] = Terminal half life in Wistar rat brain at 30 mg/kg, po; assay type: ADME, organism-based; design: dose 30 mg/kg, route oral; conditions: read-out: beta t1/2 (converted)
[46] = Terminal half life in Swiss mouse brain at 30 mg/kg, po; assay type: ADME, organism-based; design: dose 30 mg/kg, route oral; conditions: read-out: beta t1/2 (converted)
[47] = Volume of distribution in Wistar rat plasma at 10 mg/kg, iv; assay type: ADME, organism-based; design: dose 10 mg/kg, route intravenous

Sequence of Voltage-gated inwardly rectifying potassium channel KCNH2 (Q12809 whole entry): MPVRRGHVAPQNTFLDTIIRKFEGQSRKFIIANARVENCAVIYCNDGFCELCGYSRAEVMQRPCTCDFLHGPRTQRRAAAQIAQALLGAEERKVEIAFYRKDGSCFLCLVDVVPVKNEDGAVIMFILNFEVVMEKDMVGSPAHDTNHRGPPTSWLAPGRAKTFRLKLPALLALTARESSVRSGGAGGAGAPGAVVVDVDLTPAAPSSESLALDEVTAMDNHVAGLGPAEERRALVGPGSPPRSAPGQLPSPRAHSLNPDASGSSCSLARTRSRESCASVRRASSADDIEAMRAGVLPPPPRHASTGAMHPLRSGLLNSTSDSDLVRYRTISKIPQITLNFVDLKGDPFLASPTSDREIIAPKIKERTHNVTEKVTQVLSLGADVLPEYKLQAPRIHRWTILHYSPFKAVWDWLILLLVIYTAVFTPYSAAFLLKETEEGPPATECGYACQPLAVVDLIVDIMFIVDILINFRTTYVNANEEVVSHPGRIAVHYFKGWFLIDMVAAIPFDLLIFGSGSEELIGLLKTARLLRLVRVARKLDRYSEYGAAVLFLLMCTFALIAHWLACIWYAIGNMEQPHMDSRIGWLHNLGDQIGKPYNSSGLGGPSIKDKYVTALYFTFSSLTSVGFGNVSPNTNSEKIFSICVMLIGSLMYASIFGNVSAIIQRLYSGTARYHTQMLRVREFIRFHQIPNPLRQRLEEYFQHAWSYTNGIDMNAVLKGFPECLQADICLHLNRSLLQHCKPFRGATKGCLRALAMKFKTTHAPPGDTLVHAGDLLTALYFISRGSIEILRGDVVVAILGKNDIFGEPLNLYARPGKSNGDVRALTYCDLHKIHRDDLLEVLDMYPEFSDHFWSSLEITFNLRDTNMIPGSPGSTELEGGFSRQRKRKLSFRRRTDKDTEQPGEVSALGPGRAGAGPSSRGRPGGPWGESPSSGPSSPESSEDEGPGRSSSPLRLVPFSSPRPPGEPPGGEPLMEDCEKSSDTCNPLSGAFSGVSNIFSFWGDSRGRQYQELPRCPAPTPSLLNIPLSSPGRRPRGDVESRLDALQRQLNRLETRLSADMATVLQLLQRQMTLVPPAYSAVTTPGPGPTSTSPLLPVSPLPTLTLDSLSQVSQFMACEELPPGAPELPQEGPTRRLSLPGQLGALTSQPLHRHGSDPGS

SMILES | clearance [1] [L/h/kg] | Kp [4] | Tmax [5] [min] | AUClast (Brain [6]) [µg·h/mL] | bioavailability [8] [%] | Vd [10] [L/kg] | pKa [11] | Cmax [13] [µg/mL] | logP [14] | half-life [16] [min] | Cmax [17] [µg/mL] | solubility kinetic at 2 h [18] [µM] | Vd [20] [L/kg] | bioavailability [21] [%] | clearance [23] [L/h/kg] | Tmax [24] [min] | solubility kinetic at 2 h [26] [µM] | IC50 (D-aspartate oxidase) [µM] | T1/2 (D-amino-acid oxidase [27]) [min] | solubility thermodynamic at 24 h [29] [µM] | also measured
O=C(O)c1cc2sccc2[nH]1 | 0.54 | 0.06 | 60 | 1.94 | 100 | 0.4 | 3.88 | 0.648 | 2.11 | 60 | 0.336 | 100 (≈ 16.7 µg/mL) | 2.1 | 56 | 1.26 | 15 | > 100 | > 10 | 10 | > 460 | Kd (D-amino-acid oxidase [2]): 0.033 µM; Kd (D-amino-acid oxidase [3]): 0.006 µM; IC50 (D-amino-acid oxidase [7]): 0.145 µM; Papp A→B [9]: 470 nm/s; Papp A→B [12]: 60 nm/s; Kd (D-amino-acid oxidase [15]): 0.019 µM; AUClast (Brain [19]): 0.302 µg·h/mL; half-life [22]: 120 min; Kp [25]: 0.05; IC50 (D-amino-acid oxidase [28]): 0.0119 µM
Oc1noc2cc(Cl)ccc12 | 0.3 | 0.03 | 30 | 0.34 | 28 | 0.2 | 4.07 | 0.319 | 2.68 | 60 | 0.228 | 100 (≈ 17 µg/mL) | 0.3 | 29 | 0.6 | 15 | > 100 | > 10 | 10 | 433 (≈ 73.4 µg/mL) | microsomal CLint [30]: 4.7 µL/min/mg; Papp A→B [9]: 770 nm/s; Papp A→B [12]: 750 nm/s; AUClast (Brain [19]): 0.139 µg·h/mL; IC50 [31]: > 10 µM; half-life [22]: 120 min; Kp [25]: 0.04
Cc1cc(C(=O)O)n[nH]1 | – | – | – | – | – | – | 3.59 | – | 0.45 | – | – | 100 (≈ 12.6 µg/mL) | – | – | – | – | > 100 | > 10 | – | > 460 | Kd (D-amino-acid oxidase [3]): 0.9 µM; IC50 (D-amino-acid oxidase [7]): 0.91 µM; AUClast (Brain [32]): 0.831 µg·h/mL; Vd [33]: 0.4 L/kg; AUClast (Brain [34]): 0.631 µg·h/mL; Cmax [35]: 0.112 µg/mL; Kp [36]: 0.1; Kd (D-amino-acid oxidase [15]): 0.617 µM; bioavailability [37]: 33%; bioavailability [38]: 97%; Cmax [39]: 0.359 µg/mL; clearance [40]: 0.66 L/h/kg; Tmax [41]: 60 min; Tmax [42]: 30 min; Kp [43]: 0.04; clearance [44]: 0.6 L/h/kg; half-life [45]: 180 min; IC50 (D-amino-acid oxidase [28]): 0.473 µM; half-life [46]: 60 min; Vd [47]: 3.5 L/kg
O=c1[nH]c2ccc(F)c(Cl)c2cc1O | 1.68 | – | 30 | – | 2 | 0.5 | 7.33 | 0.0179 | 2.7 | – | 0.0121 | 3 (≈ 0.641 µg/mL) | 0.3 | 3 | 2.7 | 15 | 65 (≈ 13.9 µg/mL) | > 10 | – | 71 (≈ 15.2 µg/mL) | microsomal CLint [30]: 183 µL/min/mg
O=c1[nH]c2cccc(Cl)c2cc1O | 1.8 | – | – | – | 1.4 | 0.3 | 7.6 | – | 2.57 | – | 0.0117 | 17 (≈ 3.33 µg/mL) | 0.3 | 0.65 | 2.64 | 15 | 55 (≈ 10.8 µg/mL) | > 10 | > 120 | 31 (≈ 6.06 µg/mL) | microsomal CLint [30]: 308 µL/min/mg
O=C(O)c1cc2occc2[nH]1 | 0.24 | 0.08 | 30 | 1.53 | 52 | 0.8 | 4.09 | 0.889 | 1.56 | 30 | 0.487 | 100 (≈ 15.1 µg/mL) | 0.4 | 42 | 0.9 | 15 | > 100 | > 10 | 10 | 428 (≈ 64.7 µg/mL) | AUClast (Brain [19]): 0.371 µg·h/mL; IC50 [31]: > 10 µM; half-life [22]: 120 min; Kp [25]: 0.08
